Test system: p53 signaling pathway in MT373 tumors
Test: MT373 syngeneic sarcoma model: mouse p53 signaling pathway profiling panel
Type: in vivo

SMILES: CCn1c(C#CCNc2ccccc2)cc2cc(CNC3CCN(C)CC3)ccc21 [Compound 1, 1-Anilino-3-{1-ethyl-5-[(1-methyl-4-piperidylamino)methyl]-1H-indol-2-yl}-2-propyne]
- Apex1 fold increase or percent reduction vs vehicle control (75 mg/kg BIDx1, 8 h): 19.97 fold or %
- Atm fold increase or percent reduction vs vehicle control (75 mg/kg BIDx1, 8 h): 13.42 fold or %
- Atr fold increase or percent reduction vs vehicle control (75 mg/kg BIDx1, 8 h): 8.05 fold or %
- Bag1 fold increase or percent reduction vs vehicle control (75 mg/kg BIDx1, 8 h): 24.87 fold or %
- Bax fold increase or percent reduction vs vehicle control (75 mg/kg BIDx1, 8 h): 1.97 fold or %
- Bbc3 fold increase or percent reduction vs vehicle control (75 mg/kg BIDx1, 8 h): 2.97 fold or %
- Bcl2 fold increase or percent reduction vs vehicle control (75 mg/kg BIDx1, 8 h): 7.84 fold or %
- Bid fold increase or percent reduction vs vehicle control (75 mg/kg BIDx1, 8 h): 1.19 fold or %
- Birc5 fold increase or percent reduction vs vehicle control (75 mg/kg BIDx1, 8 h): 15.16 fold or %
- Brca1 fold increase or percent reduction vs vehicle control (75 mg/kg BIDx1, 8 h): 3.14 fold or %
- Brca2 fold increase or percent reduction vs vehicle control (75 mg/kg BIDx1, 8 h): 5.75 fold or %
- Btg2 fold increase or percent reduction vs vehicle control (75 mg/kg BIDx1, 8 h): 14.84 fold or %
- Casp2 fold increase or percent reduction vs vehicle control (75 mg/kg BIDx1, 8 h): 17.74 fold or %
- Ccnb1 fold increase or percent reduction vs vehicle control (75 mg/kg BIDx1, 8 h): 4.81 fold or %
- Ccne1 fold increase or percent reduction vs vehicle control (75 mg/kg BIDx1, 8 h): 12.14 fold or %
- Ccng1 fold increase or percent reduction vs vehicle control (75 mg/kg BIDx1, 8 h): 6.19 fold or %
- Ccnh fold increase or percent reduction vs vehicle control (75 mg/kg BIDx1, 8 h): 15.28 fold or %
- Cdc25a fold increase or percent reduction vs vehicle control (75 mg/kg BIDx1, 8 h): 15.20 fold or %
- Cdk1 fold increase or percent reduction vs vehicle control (75 mg/kg BIDx1, 8 h): 32.00 fold or %
- Cdk4 fold increase or percent reduction vs vehicle control (75 mg/kg BIDx1, 8 h): 37.50 fold or %
- Cdkn1a fold increase or percent reduction vs vehicle control (75 mg/kg BIDx1, 8 h): 7.14 fold or %
- Cdkn2a fold increase or percent reduction vs vehicle control (75 mg/kg BIDx1, 8 h): 31.09 fold or %
- Chek1 fold increase or percent reduction vs vehicle control (75 mg/kg BIDx1, 8 h): 19.58 fold or %
- Cradd fold increase or percent reduction vs vehicle control (75 mg/kg BIDx1, 8 h): 21.01 fold or %
- Cul9 fold increase or percent reduction vs vehicle control (75 mg/kg BIDx1, 8 h): 1.73 fold or %
- Dapk1 fold increase or percent reduction vs vehicle control (75 mg/kg BIDx1, 8 h): 1.37 fold or %
- Dnmt1 fold increase or percent reduction vs vehicle control (75 mg/kg BIDx1, 8 h): 1.16 fold or %
- E2f1 fold increase or percent reduction vs vehicle control (75 mg/kg BIDx1, 8 h): 1.05 fold or %
- E2f3 fold increase or percent reduction vs vehicle control (75 mg/kg BIDx1, 8 h): 21.77 fold or %
- Egfr fold increase or percent reduction vs vehicle control (75 mg/kg BIDx1, 8 h): 42.31 fold or %
- Egr1 fold increase or percent reduction vs vehicle control (75 mg/kg BIDx1, 8 h): 59.72 fold or %
- Ep300 fold increase or percent reduction vs vehicle control (75 mg/kg BIDx1, 8 h): 15.26 fold or %
- Ercc1 fold increase or percent reduction vs vehicle control (75 mg/kg BIDx1, 8 h): 20.74 fold or %
- Esr1 fold increase or percent reduction vs vehicle control (75 mg/kg BIDx1, 8 h): 1.22 fold or %
- Fadd fold increase or percent reduction vs vehicle control (75 mg/kg BIDx1, 8 h): 2.66 fold or %
- Fas fold increase or percent reduction vs vehicle control (75 mg/kg BIDx1, 8 h): 1.75 fold or %
- Fasl fold increase or percent reduction vs vehicle control (75 mg/kg BIDx1, 8 h): 1.24 fold or %
- Foxo3 fold increase or percent reduction vs vehicle control (75 mg/kg BIDx1, 8 h): 1.04 fold or %
- Gadd45a fold increase or percent reduction vs vehicle control (75 mg/kg BIDx1, 8 h): 25.34 fold or %
- Hif1a fold increase or percent reduction vs vehicle control (75 mg/kg BIDx1, 8 h): 1.26 fold or %
- Il6 fold increase or percent reduction vs vehicle control (75 mg/kg BIDx1, 8 h): 68.47 fold or %
- Jun fold increase or percent reduction vs vehicle control (75 mg/kg BIDx1, 8 h): 22.75 fold or %
- Kras fold increase or percent reduction vs vehicle control (75 mg/kg BIDx1, 8 h): 1.03 fold or %
- Lig4 fold increase or percent reduction vs vehicle control (75 mg/kg BIDx1, 8 h): 1.13 fold or %
- Mdm2 fold increase or percent reduction vs vehicle control (75 mg/kg BIDx1, 8 h): 5.35 fold or %
- Mdm4 fold increase or percent reduction vs vehicle control (75 mg/kg BIDx1, 8 h): 1.03 fold or %
- Mel1 fold increase or percent reduction vs vehicle control (75 mg/kg BIDx1, 8 h): 24.40 fold or %
- Mlh1 fold increase or percent reduction vs vehicle control (75 mg/kg BIDx1, 8 h): 12.48 fold or %
- Msh2 fold increase or percent reduction vs vehicle control (75 mg/kg BIDx1, 8 h): 31.49 fold or %
- Myod1 fold increase or percent reduction vs vehicle control (75 mg/kg BIDx1, 8 h): 4.56 fold or %
- Nf1 fold increase or percent reduction vs vehicle control (75 mg/kg BIDx1, 8 h): 31.85 fold or %
- Nfkb1 fold increase or percent reduction vs vehicle control (75 mg/kg BIDx1, 8 h): 11.36 fold or %
- Pcna fold increase or percent reduction vs vehicle control (75 mg/kg BIDx1, 8 h): 32.47 fold or %
- Pmaip1 fold increase or percent reduction vs vehicle control (75 mg/kg BIDx1, 8 h): 1.60 fold or %
- Ppm1d fold increase or percent reduction vs vehicle control (75 mg/kg BIDx1, 8 h): 1.48 fold or %
- Prc1 fold increase or percent reduction vs vehicle control (75 mg/kg BIDx1, 8 h): 1.28 fold or %
- Prkca fold increase or percent reduction vs vehicle control (75 mg/kg BIDx1, 8 h): 5.77 fold or %
- Pten fold increase or percent reduction vs vehicle control (75 mg/kg BIDx1, 8 h): 0.35 fold or %
- Pttg1 fold increase or percent reduction vs vehicle control (75 mg/kg BIDx1, 8 h): 1.04 fold or %
- Rb1 fold increase or percent reduction vs vehicle control (75 mg/kg BIDx1, 8 h): 16.87 fold or %
- Rela fold increase or percent reduction vs vehicle control (75 mg/kg BIDx1, 8 h): 1.12 fold or %
- Rprm fold increase or percent reduction vs vehicle control (75 mg/kg BIDx1, 8 h): 3.08 fold or %
- Serpinb5 fold increase or percent reduction vs vehicle control (75 mg/kg BIDx1, 8 h): 3.96 fold or %
- Sesn2 fold increase or percent reduction vs vehicle control (75 mg/kg BIDx1, 8 h): 3.24 fold or %
- Sfn fold increase or percent reduction vs vehicle control (75 mg/kg BIDx1, 8 h): 1.12 fold or %
- Sirt1 fold increase or percent reduction vs vehicle control (75 mg/kg BIDx1, 8 h): 1.09 fold or %
- Stat1 fold increase or percent reduction vs vehicle control (75 mg/kg BIDx1, 8 h): 1.35 fold or %
- Tnf fold increase or percent reduction vs vehicle control (75 mg/kg BIDx1, 8 h): 1.85 fold or %
- Traf1 fold increase or percent reduction vs vehicle control (75 mg/kg BIDx1, 8 h): 1.23 fold or %
- Trp53bp2 fold increase or percent reduction vs vehicle control (75 mg/kg BIDx1, 8 h): 12.87 fold or %
- Trp53 fold increase or percent reduction vs vehicle control (75 mg/kg BIDx1, 8 h): 1.13 fold or %
- Apex1 fold increase or percent reduction vs vehicle control (75 mg/kg BIDx1, 24 h): 30.49 fold or %
- Atm fold increase or percent reduction vs vehicle control (75 mg/kg BIDx1, 24 h): 23.68 fold or %
- Atr fold increase or percent reduction vs vehicle control (75 mg/kg BIDx1, 24 h): 10.08 fold or %
- Bag1 fold increase or percent reduction vs vehicle control (75 mg/kg BIDx1, 24 h): 25.05 fold or %
- Bax fold increase or percent reduction vs vehicle control (75 mg/kg BIDx1, 24 h): 1.60 fold or %
- Bbc3 fold increase or percent reduction vs vehicle control (75 mg/kg BIDx1, 24 h): 1.80 fold or %
- Bcl2 fold increase or percent reduction vs vehicle control (75 mg/kg BIDx1, 24 h): 30.58 fold or %
- Bid fold increase or percent reduction vs vehicle control (75 mg/kg BIDx1, 24 h): 1.04 fold or %
- Birc5 fold increase or percent reduction vs vehicle control (75 mg/kg BIDx1, 24 h): 45.92 fold or %
- Brca1 fold increase or percent reduction vs vehicle control (75 mg/kg BIDx1, 24 h): 42.43 fold or %
- Brca2 fold increase or percent reduction vs vehicle control (75 mg/kg BIDx1, 24 h): 36.40 fold or %
- Btg2 fold increase or percent reduction vs vehicle control (75 mg/kg BIDx1, 24 h): 31.06 fold or %
